Source: US20250339399A1, “SUPRAMOLECULAR SELF-ASSEMBLY SYSTEM” (Beijing Creatron Institute of Pharmaceutical Research Co., …, priority 2022, published 2025)
Counter-ions that a name gives are not always drawn. Like-named read-outs stand apart in the source and are kept apart here.

Legend:
[1] = cited from earlier work
[2] = Binary (carrier), ternary and quaternary supramolecular self-assembly systems of polymer, carrier building block and target: guest concentration over incubation time (Examples 1-56); type: physicochemical; settings: for Times that of the initial medium / Concentration of guest molecule in solution: 6 h
Procedure: (§1) pH 2.0 hydrochloric acid, pH 4.5 acetate, and pH 6.5, pH 6.8, or pH 7.4 phosphate buffer solutions were prepared. The selection of each initial medium followed the principle that the solubility in the initial medium of the selected targets (or active ingredients) should low enough, but should meet the detection sensitivity and accuracy requirements of the corresponding analytical methods. Each buffer as initial media was placed in a 50 ml test tube with a stopper, shaken in a constant temperature air shaker at 37° C.±0.5° C., with an amplitude of 200 rpm, and incubated for 1 hour. […] Samples were taken at 0.5 h, 3 h and 6 h after incubation, centrifuged at 37° C., 13000 rpm for 5 minutes, and the supernatant was diluted at least 10 times with the mobile phase under the target analyte analytical method, filtered, the initial filtrate was discarded, and the continued filtrate was used as the test solution for injection analysis. The corresponding HPLC method under each target object item in Table 8 was used to determine the content of each target substance. When the solubility of the target in the initial medium is below the quantitative limit of the analytical method, a small amount of surfactant, such as sodium dodecyl sulfate (SDS), Tween20, or Tween80, can be added appropriately.
Experiments were conducted according to the steps in Comparative Example 1, and quantitative analysis was carried out using the analytical method for each target to investigate the regulation ability of each binary supramolecular self-assembly system built from 0.5% polymer and target on guest molecules stacking.
Ternary supramolecular self-assembly systems based on different polymers, carrier building blocks, and targets were built according to the experimental scheme in Table 12, to investigate the influence of synergistic regulation of the carrier building blocks and the polymers on the stacking of target molecules, as well as the stability of the supramolecular self-assembly systems jointly built by them over incubation time. The initial medium, quantitative analysis method, pre-treatment method, and initial theoretical concentration of the target, corresponding to each target molecule in the experiment, were consistent with those in Comparative Examples 1 and 2. After a target was added to the system, the target was uniformly dispersed by ultrasonication at 37° C. for half an hour and then shaken in a 37° C. constant temperature air shaker, and samples were collected after different incubation time, i.e. 0.5 h, 1 h, 2 h, 3 h, 4 h, and 6 h.

[3] = Guest molecule concentration after incubation in initial medium without polymer (Comparative Example 1); type: physicochemical; settings: for Concentration of guest molecule measured after different incubated time: 37° C.; for Concentration of guest molecule in solution: initial medium
Procedure: as §1
The above targets were incubated at 37° C.±0.5° C. for different time in an initial medium without any polymer. Each solid target formed by molecular stacking was removed by centrifugation, and the supernatant was analyzed using the HPLC method under each target item (see Table 8). The theoretical addition concentration of each target when its supramolecular self-assembly system was built was determined by its maximum dose in clinical use.

[4] = Binary supramolecular self-assembly systems of polymer and target: guest concentration over incubation time (Comparative Example 2); type: physicochemical; settings: for Concentration of guest molecule in solution / Times that of the initial medium: 6 h
Procedure: Experiments were conducted according to the steps in Comparative Example 1, and quantitative analysis was carried out using the analytical method for each target to investigate the regulation ability […] stacking.

[5] = prost derivatives, Table 31 (relevant information)
[6] = binary system with 0.5% polymer 102, incubation 0.5 h
[7] = binary system with 0.5% polymer 102, incubation 3 h
[8] = binary system with 0.5% polymer 102, incubation 6 h
[9] = ternary: 0.25% 102M + 0.25% 301
[10] = ternary: 0.25% 102M + 0.25% 302
[11] = Cannabidiol derivatives, Table 30 (chemical structures)

CCCCC(C)(O)C/C=C/[C@H]1[C@H](O)CC(=O)[C@@H]1CCCCCCC(=O)OC (mixture of isomers) [Misoprostol, misoprostol]
Log P [1, 5]: Log P:3.86 D-H: 2 R-H:4

CCCCC[C@H](O)/C=C/[C@H]1[C@H](O)CC(=O)[C@@H]1CCCCCCC(=O)O [Alprostadil, alprostadil]
Log P [1, 5]: Log P 3.58 H,3 R-H 5

CCCCC[C@](C)(O)/C=C/[C@@H]1[C@@H](C/C=C\CCCC(=O)O)[C@@H](O)C[C@H]1O [Carboprost, carboprost]
Log P [1, 5]: Log P:2.89 D-H: 4 R-H: 5

COC(=O)[C@H](c1ccccc1Cl)N1CCc2sccc2C1 [Clopidogrel bisulfate]
Times that of the initial medium ([2]; quaternary: 0.25% 204 (102M+103E3) + 0.25% 302, 310, 314 or 318, range over the systems): 13-17 times
Concentration of guest molecule measured after different incubated time ([3]; 0.5 h, pH 4.5 acetate buffer): 48900 ng/mL
Concentration of guest molecule measured after different incubated time ([3]; 3 h, pH 4.5 acetate buffer): 39600 ng/mL
Concentration of guest molecule measured after different incubated time ([3]; 6 h, pH 4.5 acetate buffer): 52000 ng/mL
Concentration of guest molecule in solution ([3]; 6 h): 51970 ng/mL
Concentration of guest molecule in solution ([4]; binary: 0.5% 103E3): 64370 ng/mL

CCCCC(C)(C)[C@H](O)/C=C/[C@H]1[C@H](O)CC(=O)[C@@H]1CCCC/C=C/C(=O)OC [Gemeprost, gemeprost]
Log P [1, 5]: Log P:4.71 D-H: 2 R-H:4

O=C1C[C@@H]2[C@@H](CC[C@@H](O)CCc3ccccc3)[C@H](O)C[C@@H]2O1 [Latanoprost lactone diol, latanoprost lactone diol]
Log P [1, 5]: Log P: 1.87 D-H: 2 R-H: 3

O=C1[C@@H]2[C@H]3CC[C@H](C3)[C@@H]2C(=O)N1C[C@@H]1CCCC[C@H]1CN1CCN(c2nsc3ccccc23)CC1 [Lurasidone hydrochloride]
Concentration of guest molecule in solution ([2]; binary: 0.25% 312): 71500 ng/mL
Concentration of guest molecule in solution ([2]; binary: 0.25% 314): 56600 ng/mL
Times that of the initial medium ([2]; binary: 0.25% 314): 81 times
Concentration of guest molecule in solution ([2]; binary: 0.5% 314): 198800 ng/mL
Times that of the initial medium ([2]; binary: 0.5% 314): 284 times
Concentration of guest molecule in solution ([2]; binary: 0.5% 319): 2300 ng/mL
Concentration of guest molecule in solution ([2]; ternary: 0.25% 102H + 312, carrier % not stated): 122100 ng/mL
Concentration of guest molecule in solution ([2]; ternary: 0.25% 319 + 0.25% 101): 11200 ng/mL
Concentration of guest molecule in solution ([2]; ternary: 102H + 310, carrier % not stated): 204900 ng/mL
Concentration of guest molecule in solution ([2]; ternary: 102H + 313, carrier % not given): 135700 ng/mL
Concentration of guest molecule in solution ([2]; ternary: 102H + 318, carrier % not stated): 141800 ng/mL
Concentration of guest molecule measured after different incubated time ([3]; 0.5 h, pH 6.8 phosphate buffer): 7300 ng/mL
Concentration of guest molecule measured after different incubated time ([3]; 3 h, pH 6.8 phosphate buffer): 10700 ng/mL
Concentration of guest molecule measured after different incubated time ([3]; 6 h, pH 6.8 phosphate buffer): 3200 ng/mL
Concentration of guest molecule in solution ([4]; binary: 0.25% 101): 32400 ng/mL
Concentration of guest molecule in solution ([4]; binary: 0.25% 102H): 84400 ng/mL

CC1=C[C@H](O)CC(C)(C)[C@H]1/C=C/C(C)=C/C=C/C(C)=C/C=C/C=C(C)/C=C/C=C(C)/C=C/C1=C(C)C[C@@H](O)CC1(C)C [Lutein, lutein]
Concentration of guest molecule measured after different incubated time ([3]; 0.5 h, pH 6.8 phosphate buffer): 0 ng/mL
Concentration of guest molecule measured after different incubated time ([3]; 3 h, pH 6.8 phosphate buffer): 0 ng/mL
Concentration of guest molecule measured after different incubated time ([3]; 6 h, pH 6.8 phosphate buffer): 0 ng/mL
Concentration of the target in the solution measured after different incubation time [4, 6]: 16300 ng/mL
Concentration of the target in the solution measured after different incubation time [4, 7]: 16900 ng/mL
Concentration of the target in the solution measured after different incubation time [4, 8]: 16000 ng/mL

CCCSc1nc(N[C@@H]2C[C@H]2c2ccc(F)c(F)c2)c2nnn([C@@H]3C[C@H](OCCO)[C@@H](O)[C@H]3O)c2n1 [Ticagrelor]
Concentration of guest molecule in solution [2, 9]: 290800 ng/mL
Times that of the initial medium [2, 9]: 26 times
Concentration of guest molecule in solution [2, 10]: 107200 ng/mL
Times that of the initial medium [2, 10]: 9.7 times
Concentration of guest molecule in solution ([2]; ternary: 0.25% 102M + 0.5% 301): 394000 ng/mL
Times that of the initial medium ([2]; ternary: 0.25% 102M + 0.5% 301): 35 times
Times that of the initial medium ([2]; ternary: 102M + 310, 312 or 313): 29 times
Concentration of guest molecule in solution ([2]; ternary: 102M + 318): 253700 ng/mL
Concentration of guest molecule measured after different incubated time ([3]; 0.5 h, 0.05% SDS in pH 6.8 phosphate buffer): 11700 ng/mL
Concentration of guest molecule measured after different incubated time ([3]; 3 h, 0.05% SDS in pH 6.8 phosphate buffer): 11900 ng/mL
Concentration of guest molecule measured after different incubated time ([3]; 6 h, 0.05% SDS in pH 6.8 phosphate buffer): 7800 ng/mL
Concentration of guest molecule in solution ([3]; 6 h): 18400 ng/mL
Concentration of the target in the solution measured after different incubation time ([4]; binary system with 0.5% polymer 101, incubation 0.5 h): 132500 ng/mL
Concentration of the target in the solution measured after different incubation time ([4]; binary system with 0.5% polymer 101, incubation 3 h): 47200 ng/mL
Concentration of the target in the solution measured after different incubation time ([4]; binary system with 0.5% polymer 101, incubation 6 h): 46600 ng/mL
Concentration of the target in the solution measured after different incubation time [4, 6]: 169800 ng/mL
Concentration of the target in the solution measured after different incubation time [4, 7]: 166000 ng/mL
Concentration of the target in the solution measured after different incubation time [4, 8]: 161400 ng/mL
Concentration of the target in the solution measured after different incubation time ([4]; binary system with 0.5% polymer 103, incubation 0.5 h): 19200 ng/mL
Concentration of the target in the solution measured after different incubation time ([4]; binary system with 0.5% polymer 103, incubation 3 h): 20400 ng/mL
Concentration of the target in the solution measured after different incubation time ([4]; binary system with 0.5% polymer 103, incubation 6 h): 17500 ng/mL
Concentration of the target in the solution measured after different incubation time ([4]; binary system with 0.5% polymer 104, incubation 0.5 h): 11900 ng/mL
Concentration of the target in the solution measured after different incubation time ([4]; binary system with 0.5% polymer 104, incubation 3 h): 9400 ng/mL
Concentration of the target in the solution measured after different incubation time ([4]; binary system with 0.5% polymer 104, incubation 6 h): 9100 ng/mL
Concentration of the target in the solution measured after different incubation time ([4]; binary system with 0.5% polymer 106, incubation 0.5 h): 16800 ng/mL
Concentration of the target in the solution measured after different incubation time ([4]; binary system with 0.5% polymer 106, incubation 3 h): 17400 ng/mL
Concentration of the target in the solution measured after different incubation time ([4]; binary system with 0.5% polymer 106, incubation 6 h): 17300 ng/mL
Concentration of the target in the solution measured after different incubation time ([4]; binary system with 0.5% polymer 107, incubation 0.5 h): 48300 ng/mL
Concentration of the target in the solution measured after different incubation time ([4]; binary system with 0.5% polymer 107, incubation 3 h): 52100 ng/mL
Concentration of the target in the solution measured after different incubation time ([4]; binary system with 0.5% polymer 107, incubation 6 h): 45500 ng/mL
Concentration of the target in the solution measured after different incubation time ([4]; binary system with 0.5% polymer 110, incubation 0.5 h): 17000 ng/mL
Concentration of the target in the solution measured after different incubation time ([4]; binary system with 0.5% polymer 110, incubation 3 h): 19200 ng/mL
Concentration of the target in the solution measured after different incubation time ([4]; binary system with 0.5% polymer 110, incubation 6 h): 19100 ng/mL
Concentration of guest molecule in solution ([4]; binary: 0.25% 102H): 260200 ng/mL
Times that of the initial medium ([4]; binary: 0.25% 102H): approximately 14 times
Times that of the initial medium ([4]; binary: 0.25% 102M): about 6 times

O=C(O)CCC/C=C\C[C@@H]1[C@@H](/C=C/[C@@H](O)COc2cccc(C(F)(F)F)c2)[C@H](O)C[C@@H]1O [Travoprost acid, travoprost acid]
Log P [1, 5]: Log P:2.92 D-H: 4 R-H: 6

CC(C)OC(=O)CCC/C=C\C[C@@H]1[C@@H](/C=C/[C@@H](O)COc2cccc(C(F)(F)F)c2)[C@H](O)C[C@@H]1O [Travoprost, travoprost]
Log P [1, 5]: Log P:3.84 D-H: 3 R-H: 5

CC(=O)CC(c1ccccc1)c1c(O)c2ccccc2oc1=O (centres unmarked) [Warfarin]
Encapsulation rate for the guest molecule ([2]; quaternary: 0.25% 207 (101+103E5) + 0.1% 320): ~100%

C=C(C)[C@@H]1CCC(C)=C[C@H]1c1c(O)cc(CCCCC)cc1O [compound 1, ((1′R,2′R)-5′-methyl-4-pentyl-2′-(prop-1-en-2-yl)-1′,2′,3′,4′-tetrahydro-[1,1′-biphenyl]-2,6-diol)]
Log P [1, 11]: Log P = 6.32, H-D:2,H-R = 2

C=C(C)[C@@H]1CCC(C)=C[C@H]1c1c(O)cc(C)cc1O [compound 2, ((1′R,2′R)-4,5′-dimethyl-2′-(prop-1-en-2-yl)-1′,2′,3′,4′-tetrahydro-[1,1′-biphenyl]-2,6-diol)]
Log P [1, 11]: Log P = 4.55, H-D:2,H-R = 2
